In ChEMBL document CHEMBL1201862, “PubChem BioAssay data set” (2004):
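The compound was tested at five concentrations on cells cultured in 96-well plates, with a 48-hour exposure period. Here, GI50 denotes the concentration required for 50% inhibition of growth.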 Activity calls are given as the source filed them. Cut-off read from the data, not from the text of the source: active = GI50 up to about 1.1 µM and inactive = higher.

How the values were obtained:
Assay in all cases: inhibition of tumour cell growth, NCI panel, 48 h
786-0 = tested on: 786-0
A498 = tested on: A498
A549 = tested on: A549
ACHN = tested on: ACHN
BT-549 = tested on: BT-549
CAKI-1 = tested on: CAKI-1
CCRF-CEM = tested on: CCRF-CEM
COLO 205 = tested on: COLO 205
DU-145 = tested on: DU-145
EKVX = tested on: EKVX
HCT-116 = tested on: HCT-116
HCT-15 = tested on: HCT-15
HL-60 = tested on: HL-60
HOP-62 = tested on: HOP-62
HOP-92 = tested on: HOP-92
HT-29 = tested on: HT-29
Hs-578T = tested on: Hs-578T
IGROV-1 = tested on: IGROV-1
K562 = tested on: K562
KM12 = tested on: KM12
LOX IMVI = tested on: LOX IMVI
M14 = tested on: M14
MCF7 = tested on: MCF7
MDA-MB-231 = tested on: MDA-MB-231
MDA-MB-435 = tested on: MDA-MB-435
MDA-N = tested on: MDA-N
MOLT-4 = tested on: MOLT-4
Malme-3M = tested on: Malme-3M
NCI-H226 = tested on: NCI-H226
NCI-H23 = tested on: NCI-H23
NCI-H522 = tested on: NCI-H522
NCI/ADR-RES = tested on: NCI/ADR-RES
OVCAR-3 = tested on: OVCAR-3
OVCAR-4 = tested on: OVCAR-4
OVCAR-5 = tested on: OVCAR-5
OVCAR-8 = tested on: OVCAR-8
PC-3 = tested on: PC-3
RPMI-8226 = tested on: RPMI-8226
RXF 393 = tested on: RXF 393
SF-268 = tested on: SF-268
SF-295 = tested on: SF-295
SK-MEL-28 = tested on: SK-MEL-28
SK-MEL-2 = tested on: SK-MEL-2
SK-MEL-5 = tested on: SK-MEL-5
SK-OV-3 = tested on: SK-OV-3
SN12C = tested on: SN12C
SNB-19 = tested on: SNB-19
SNB-75 = tested on: SNB-75
SR = tested on: SR
SW-620 = tested on: SW-620
T47D = tested on: T47D
TK-10 = tested on: TK-10
U-251 = tested on: U-251
UACC-257 = tested on: UACC-257
UACC-62 = tested on: UACC-62
UO-31 = tested on: UO-31

## CN(C)C1C(O)=C(C(=O)NCN2CCCC2)C(=O)C2(O)C(O)=C3C(=O)c4c(O)cccc4C(C)(O)C3CC12 (stereo unspecified)
786-0
  GI50: > 100 µM (inactive)
A498
  GI50: > 100 µM (inactive)
A549
  GI50: 69.3 µM (inactive)
ACHN
  GI50: > 100 µM (inactive)
BT-549
  GI50: > 100 µM (inactive)
CAKI-1
  GI50: > 100 µM (inactive)
CCRF-CEM
  GI50: 59 µM (inactive)
COLO 205
  GI50: > 100 µM (inactive)
DU-145
  GI50: 62.2 µM (inactive)
EKVX
  GI50: > 100 µM (inactive)
HCT-116
  GI50: > 100 µM (inactive)
HCT-15
  GI50: > 100 µM
HL-60
  GI50: > 100 µM (inactive)
HOP-62
  GI50: > 100 µM (inactive)
HOP-92
  GI50: > 100 µM (inactive)
HT-29
  GI50: > 100 µM (inactive)
Hs-578T
  GI50: > 100 µM (inactive)
IGROV-1
  GI50: > 100 µM (inactive)
K562
  GI50: 57 µM (inactive)
KM12
  GI50: > 100 µM (inactive)
LOX IMVI
  GI50: > 100 µM (inactive)
M14
  GI50: 77.3 µM (inactive)
MCF7
  GI50: 54.6 µM (inactive)
MDA-MB-231
  GI50: 29.2 µM (inactive)
MDA-MB-435
  GI50: 34.5 µM (inactive)
MDA-N
  GI50: > 100 µM (inactive)
MOLT-4
  GI50: 40 µM (inactive)
Malme-3M
  GI50: 25.6 µM (inactive)
NCI-H226
  GI50: > 100 µM (inactive)
NCI-H23
  GI50: 63.5 µM (inactive)
NCI-H522
  GI50: > 100 µM (inactive)
NCI/ADR-RES
  GI50: > 100 µM (inactive)
OVCAR-3
  GI50: > 100 µM (inactive)
OVCAR-4
  GI50: > 100 µM (inactive)
OVCAR-5
  GI50: > 100 µM (inactive)
OVCAR-8
  GI50: > 100 µM (inactive)
PC-3
  GI50: > 100 µM (inactive)
RPMI-8226
  GI50: > 100 µM (inactive)
RXF 393
  GI50: > 100 µM (inactive)
SF-268
  GI50: > 100 µM (inactive)
SF-295
  GI50: > 100 µM (inactive)
SK-MEL-28
  GI50: > 100 µM (inactive)
SK-MEL-2
  GI50: > 100 µM (inactive)
SK-MEL-5
  GI50: > 100 µM (inactive)
SK-OV-3
  GI50: > 100 µM (inactive)
SN12C
  GI50: > 100 µM (inactive)
SNB-19
  GI50: > 100 µM (inactive)
SNB-75
  GI50: 52.4 µM (inactive)
SR
  GI50: > 100 µM (inactive)
SW-620
  GI50: > 100 µM (inactive)
T47D
  GI50: > 100 µM (inactive)
TK-10
  GI50: 60.7 µM (inactive)
U-251
  GI50: 88.9 µM (inactive)
UACC-257
  GI50: 69.2 µM (inactive)
UACC-62
  GI50: > 100 µM (inactive)
UO-31
  GI50: > 100 µM (inactive)
